Patent US20260219274A1, “POLYOL SWEETNERS AND CARDIOVASCULAR AND THROMBOTIC EVENT RISK” (THE CLEVELAND CLINIC FOUNDATION, priority 2023, published 2026)

What was measured:
[1] = test system: human platelet-rich plasma; assay: Aggregometry in platelet-rich plasma; format: cell-based; conditions: for platelet responsiveness / aggregation with varying polyol level: fixed submaximal ADP or TRAP6, varying pre-incubation levels
Description: Aggregometry in platelet rich plasma (PRP) was performed as previously described^40 and outlined in supplemental methods.
Platelet rich plasma (PRP) was isolated as previously described.^5 Whole blood was drawn from healthy donors and anticoagulated with sodium citrate (0.109 M). PRP was prepared by centrifuging at 100×g for 10 min at 22° C. Platelet poor plasma (PPP) was obtained by additional centrifugation of the remaining blood samples at 11,000×g for 2 min. Next, platelets were counted with a hemocytometer and the platelet concentration adjusted to 2×10^8/mL using PPP. PRPs were then pre-incubated with xylitol (Catalogue #X3375-5G, Sigma, St. Louis, MO, USA) at indicated concentrations or vehicle (saline) for 30 min at 22° C. After exposure to xylitol or vehicle, PRPs were maintained in suspension with constant stirring (600 rpm) at 37° C. Subsequently, platelet aggregation was induced by adding the agonists ADP (up to 5 μM, Catalogue #384, Chronolog, Havertown, PA, US) or TRAP6 (TFLLR-NH2, up to 10 μM, Catalogue #464, Tocris, Bristol, UK). For all platelet aggregometry experiments, blood was always processed within approx. 30 minutes of collection, and isolated platelets were used within 120 minutes of isolation. When used, pairs of vehicle vs. xylitol incubated PRP were always incubated and analyzed together (beginning, middle, end of platelet prep use) and after 120 minutes post isolation, PRPs were not used anymore.
Platelet rich plasma (PRP) and platelet poor plasma (PPP) was prepared as previously described with sodium citrate (0.109 M) as anticoagulant^51. Platelets were counted and concentrations adjusted to 2×10^8/mL with PPP. PRPs were pre-incubated with erythritol (Catalogue #E7500, Sigma, St. Louis, MO, USA), glucose (Catalogue #G7021, Sigma, St. Louis, MO, USA) or 1,5-AHG (Catalogue #29874, Cayman Chemical, Ann Arbor, Michigan, USA) (at indicated concentrations) or vehicle (saline) for 30 min at 22° C. After pre-incubation PRPs were maintained in suspension with constant stirring (600 rpm) at 37° C. and platelet aggregation was initiated using ADP (up to 5 μM, Catalogue #384, Chronolog, Havertown, PA, US) or TRAP6 (TFLLR-NH2, up to […], Catalogue #464, Tocris, Bristol, UK).

[2] = test system: platelets of healthy volunteers; assay: Erythritol or glucose ingestion: platelet aggregation and granule release; format: in vivo, human
Description: This single center trial was approved by the Cleveland Clinic Institutional Review Board (clinicaltrials.gov identifier NCT04731363). Following subject consent (nonsmokers without CVD, hypertension, or diabetes), blood was drawn after overnight fast and 30 min following consumption of water containing 30 g of […] glucose (n=10, 30.1±11 years of age, 40% male), or erythritol (n=10, 30.5±8 years of age, 50% male), a quantity commonly found in erythritol-sweetened foods and the daily intake of some subjects based on 2013-2014 National Health and Nutrition Examination Survey (NHANES) data and FDA filings.(4,5).
Following erythritol consumption, postprandial circulating erythritol levels (assessed using stable-isotope-dilution liquid-chromatography tandem mass spectrometry (LC/MS/MS)3) were >1000-fold increased compared to baseline levels (median[inter quartile range], 6480[5930-7300]μM versus 3.75[3.35-3.87]μM, P<0.0001). In contrast, circulating erythritol levels remained similar before versus after glucose consumption (3.0[2.6-4.0]μM versus 2.9[2.7-3.8]μM, P=0.87; glucose levels before versus after 86.5(81.8-93.0) versus 127.0(122.3-132.3), P=0.002). […] In contrast, glucose consumption had no effect on platelet aggregation.

human whole blood = assay: Imaging flow cytometry of platelet-leukocyte aggregates in whole blood; format: cell-based; conditions: pre-incubation with physiological levels of xylitol, TRAP6 7.5 μM
Description: Imaging flow cytometry was performed on an Amnis ImageStreamX MK II two-camera system using anti-CD45 AF488, anti-CD41 AF647 and anti-CD62P-PE. Details and the gating strategy are described in supplemental methods.
Whole blood collected from consented healthy volunteers was incubated with xylitol (30 or 100 μM) or vehicle for 30 min. Where indicated, the samples were then stimulated with 7.5 μM TRAP6 for 10 min. Blood samples were then incubated with anti-CD45 AF488 (Catalogue #FAB1430G, R&D Systems, MN, USA), anti-CD41 AF647 (Catalogue #303726, Biolegend, San Diego, CA, USA) and anti-CD62P-PE (Catalogue #555524, BD PharMingen, San Diego, CA, USA) for 20 min at room temperature in the dark. After gentle red blood cell lysis using VersaLyse Lysing solution (Catalogue #A09777, Beckman Coulter, Brea, California, USA), cells were gently spun down and resuspended in HBSS-BSA. Platelet leucocyte aggregates were measured on an Amnis ImageStreanX MK II two-camera system (Luminex, Austin, TX, USA). Data were analyzed using Amnis IDEAS software (Luminex, Austin, TX, USA).
IDEAS analysis was performed as follows. Gating out of focus events using Gradient RMS in the brightfield image. Gating on CD45+ events using the Intensity and Max Pixel features. Elimination of false positive CD45 events and selection of only true CD45+ cells using Intensity vs. Area of CD45+. […]

[3] = test system: PRP from healthy volunteers; assay: Xylitol dietary challenge: platelet aggregometry before and 30 min after ingestion; format: in vivo, human
Description: The second part of xylitol ingestion studies focused on platelet phenotypic changes after oral xylitol challenge. In these parallel studies, platelet-rich plasma (PRP) was isolated immediately after the blood draw (from the same subjects that were used for xylitol pharmacokinetics studies) and aggregometry assays performed (as described below) on blood samples collected at baseline and 30 min (when postprandial peak levels were observed) after xylitol exposure.
A non-randomized study design was used wherein each subject served as their own control, comparing both xylitol levels and indices of platelet function within subjects at baseline versus 30 min following ingestion of the standardized drink of xylitol. […]
Platelet rich plasma (PRP) was isolated as previously described.^5 Whole blood was drawn from healthy donors and anticoagulated with sodium citrate (0.109 M). […] Next, platelets were counted with a hemocytometer and the platelet concentration adjusted to 2×10^8/mL using PPP. […] When used, pairs of vehicle vs. xylitol incubated PRP were always incubated and analyzed together (beginning, middle, end of platelet prep use) and after 120 minutes post isolation, PRPs were not used anymore.

SMILES	stimulus-dependent platelet aggregation response to ADP and TRAP6 ([1]; PRP incubated with the polyol versus vehicle, submaximal agonist)	platelet responsiveness / aggregation with varying polyol level [1]	erythritol concentration eliciting significant increase in ADP-stimulated aggregometry responses ([1]; threshold, FIG. 27) [µM]	erythritol concentration eliciting significant increase in thrombin-stimulated aggregometry responses ([1]; threshold, FIG. 27) [µM]	platelet aggregation responses to ADP and TRAP6 after ingestion ([2]; 30 min after 30 g vs baseline)	stimulus-dependent release of alpha granule marker CXCL4 ([2]; TRAP6 (7.5 μM), ADP (2.0 μM), after ingestion)	stimulus-dependent release of dense granule marker serotonin ([2]; TRAP6 and ADP, after ingestion)	TRAP6 stimulated platelet-leukocyte aggregates (human whole blood)	stimulus-dependent platelet activation and aggregation ([1]; xylitol 30 μM with sub-maximal ADP or TRAP6)	effect on PRP without agonist ([1]; xylitol 30 μM, brief incubation)	aggregation responses to ADP or TRAP6 after ingestion ([3]; 30 min after 30 g xylitol vs baseline)	platelet responsiveness of individual subjects ([3]; submaximal ADP and TRAP6, after xylitol ingestion, every subject)
OC[C@@H](O)[C@@H](O)CO [erythritol]	significant increase	dose-dependently enhanced	18	18	striking increase	markedly enhanced	markedly enhanced					
OC[C@@H](O)[C@H](O)[C@@H](O)CO [xylitol]		dose-dependent enhancement						dose-dependent increase	marked enhancement	no effect	substantial (multiple-fold) increase	significant increase
